Assay results from patent US20230149540A1, “VACCINE PLATFORM FOR THE INDUCTION OF SYSTEMIC IMMUNE RESPONSES” (The Board of Trustees of the Leland Stanford Junior …, priority 2020, published 2023).

Tests used:
[1] = test system: human MAIT cells; assay: In vitro MAIT cell activation, IFN-γ secretion (FIG. 7); type: cell-based; conditions: stimulated for 18 h
Method: (§1) FIG. 7. In vitro exposure of human or rhesus macaque MAIT cells to their cognate antigen (5-OP-RU) (a highly unstable molecule) or microspheres loaded with 5-OP-RU-loaded MR-1 monomer induced IFN-γ secretion. Representative pseudocolor plots shown are gated on live CD8^+ T cells. Human and rhesus macaque cells were stimulated for 18 h.
(§2) Activation of innate-like T cells and effector memory T cells can be achieved by presentation of their antigen in the context of the appropriate MHC molecule. Streptavidin-coated microspheres were linked to biotinylated monomers of CD1d (type I NKT cells) or MR1 (MAIT cells) to test for induction of activation of these innate-like T cells. […] We then performed an experiment in which mice were intravenously administrated CABs loaded with αGC (positive control), which would induce the expansion of NKT cells, CD1d-αGC-coated microspheres (test group), or were left untreated (negative control) (FIG. 8).

[2] = test system: rhesus macaque MAIT cells; assay: as above; type: cell-based; conditions: stimulated for 18 h
Method: as §1, §2

CC(=O)C=Nc1c(NC[C@H](O)[C@H](O)[C@H](O)CO)[nH]c(=O)[nH]c1=O [5-OP-RU]
secretion of IFN-γ by MAIT cells [1]: induce secretion of IFN-γ to a similar extent | secretion of IFN-γ by MAIT cells [2]: induce secretion of IFN-γ to a similar extent
